Results from patent US20130197030A1, “Substituted 1,3-Dioxanes and There Uses” (Evolva Sa, priority 2007, published 2013).

Assays:
[1] = tested on: arterial thrombosis in a mouse model; test: Arterial thrombosis in a mouse model (FeCl3, femoral artery); format: in vivo; details: mice; dose not given
Method: The solutions are diluted 3.3-fold in saline and 100 μl/25 g is injected. Thus, the above-mentioned doses of 100 and 300 mg/kg of compound correspond to final doses of 30 and 100 mg/kg.
During the experiments, a soluble salt of the drug is provided (e.g., potassium salt of compound C), diluted in saline. Of this formulation, 100 μl/25 g is injected i.v. in the tail vein (dose of 100 mg/kg).
Solutions are injected (100 μl/25 g body weight) i.v. in the tail vein over 2 min to obtain doses of each compound of 30 mg/kg and 100 mg/kg. Aspirin is given the same way at a dose of 200 mg/kg. Clopidogrel is administered by oral gavage at a dose of 20 mg/kg at 6-7 hours prior to the experiment. The animals assigned to each group are matched for body weight. Mice are typically 8-10 weeks old males and are in a 100% Swiss genetic background.
The flow in each image is expressed as a percentage of that at the contralateral side, and data are averaged for all 120 images to determine total flow. The same analysis is performed for 10 min intervals (which gives essentially the same information as the area under the curve). […] Flow before treatment is recorded as 100%, and that in occluded arteries as 0%. At the end of the experiment, blood is collected on 0.01M citrate buffer by heart puncture for determination of blood cell counts. Plasma is prepared by centrifugation and stored at −20° C. for determination of drug levels.
Statistical analysis for differences between two groups is performed by non-parametric Student t-test. Occlusion times >30 min were considered equal to 30 min for statistical analysis. Significance is set at p<0.05.

[2] = biological target: T1, Thromboxane receptor (TP) (Homo sapiens, UniProt P21731); test: TP receptor radioligand binding; details: Human recombinant HEK-293 cells, 5 nM [3H] SQ-29548
T1 construct: expressed in transfected cells; host or cells: HEK-293 cells
T1 sequence (P21731 1-343): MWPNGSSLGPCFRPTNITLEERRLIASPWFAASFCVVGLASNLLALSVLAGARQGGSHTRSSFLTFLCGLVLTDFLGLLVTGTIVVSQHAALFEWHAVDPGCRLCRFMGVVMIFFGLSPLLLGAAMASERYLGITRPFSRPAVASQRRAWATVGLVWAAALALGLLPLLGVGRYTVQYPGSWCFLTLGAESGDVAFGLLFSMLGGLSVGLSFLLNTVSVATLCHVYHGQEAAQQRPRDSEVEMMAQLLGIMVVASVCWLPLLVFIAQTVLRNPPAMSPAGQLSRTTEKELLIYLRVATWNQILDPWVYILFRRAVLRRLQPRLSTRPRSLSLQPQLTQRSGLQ
Method: The compounds were tested on radioligand binding assays for thromboxane receptor binding essentially as described by Hedberg et al. (1988) J. Pharmacol. Exp. Ther. 245:786-792 and Saussy et al. (1986) J. Biol. Chem. 261: 3025-3029 according to the following:
TP Receptor Radioligand Binding Studies:
Human recombinant HEK-293 cells,
Incubation Time, Temp: 30 minutes at 25° C.
Incubation Buffer: 50 mM Tris-HCl, pH 7.4, 154 mM NaCl
Non-Specific Ligand: 1 μM SQ-29548
The data were transformed to semi-log and then analysed using non-linear regression to a four-parameter dose-response curve Y=Bottom+(Top−Bottom)/(1+10̂((LogEC50−X)*HillSlope)) using the log(agonist) vs. response—Variable slope function of GraphPad Prism software (http://graphpad.com/help/prism5/prism5help.html?usingnonlinear_regression_step_by_s.htm).

[3] = tested on: 3T3-L1 adipocytes; test: Insulin-stimulated glucose uptake assay; format: cell-based; details: compared with Compound A (racemate)
Method: Briefly, glucose uptake is measured in 3T3-L1 adipocytes cultured in 96-well plates. On day 6 of differentiation (according to the MDI-protocol, see above) cells are treated with either vehicle, positive control (Avandia) or test compound. 48 hours later the ability of adipocytes to take up glucose in response to insulin is determined. Cells are washed with serum-free DMEM+antibiotics and incubated in the same medium at 37° C. for 2 hours. Cells are then washed and subsequently incubated in Krebs-Ringer-Hepes (KRP) buffer for 30 min at 37° C. Hereafter, insulin is added to the cells to a final concentration of 10 nM and cells are then incubated at 37° C. for 15 min. Glucose uptake is initiated by the addition of KRP buffer supplemented with 10 mM [^14C] 2-deoxy-D-glucose. After further incubation for 15 min at 37° C., glucose uptake is terminated by addition of a large surplus of cold glucose and three rapid washes of ice-cold PBS. Cells are then lysed and ^14C-radioactivity determined by scintillation counting.

## O=C(O)CC/C=C\CC1COC(c2coc3ccc(Cl)cc3c2=O)OC1c1ccccc1O (racemic) [Compound 3, (Z)-6-(2-(6-Chloro-4-oxo-4H-chromen-3-yl)-4-(2-hydroxyphenyl)-1,3-dioxan-5-yl)hex-4-enoic acid]
[1]
  Occlusion time: prolongs the occlusion time
  Total blood flow: improves total blood flow
[2]
  IC50: 15.2 nM
  Ki: 9.9 nM
[2]; at 10 μM
  inhibition at 10 µM: 97%
[3]
  Effect in glucose uptake assays (in words): effect similar if not better to Compound A (racemate)
